{"source": "patent US20190153409A1", "about": "“COMPOSITIONS COMPRISING PARTICLES AND METHODS FOR TREATING CANCER” (priority 2017, published 2019)", "key": {"[1]": {"tested_on": "p53", "assay": "p53 transcription activity: GFP reporter in HCT116 cells transfected with RGC-mazE-IRES-GFP plasmid", "assay_type": "cell-based, human", "protocol": "In order to test the ability of p53 to bind to its responsive element and stimulate transcription, HCT116 cells were transfected with RGC-mazE-IRES-GFP plasmid. Since p53 is degraded in un-activated cells, the present inventors used Quercetin, a ubiquitous bioactive plant flavonoid that is able to induce p53 phosphorylation, stabilization and total p53 protein accumulation. Another widely used p53 inducer is the antimetabolite agent 5-FU. P53 transcription activity was evaluated by measuring the expression of the downstream reporter gene, GFP."}, "[2]": {"tested_on": "HCT116 cells"}, "[3]": {"tested_on": "HCT116 cells", "assay": "Cell toxicity in transfected HCT116 cells"}, "[4]": {"target": "mCherry-MazF (E. coli MazF ribonuclease fused to the C terminus of the monomeric red fluorescence protein mCherry) (E. coli) (UniProt P0AE70)", "sequence (P0AE70 whole entry, the tested form may be a part)": "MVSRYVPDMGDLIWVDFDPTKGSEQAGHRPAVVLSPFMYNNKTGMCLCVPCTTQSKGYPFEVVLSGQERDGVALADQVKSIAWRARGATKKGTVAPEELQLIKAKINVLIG", "assay": "cell-based or functional assay"}}}
{"molecule": "O=c1[nH]cc(F)c(=O)[nH]1", "note": "[5-FU]", "values": [{"measurement": "GFP expression levels", "setting": "[1]; 10 μM, compared with Quercetin", "result": "significantly higher expression levels of GFP"}, {"measurement": "cell toxicity", "setting": "[2]", "result": "no toxicity"}]}
{"molecule": "O=c1c(O)c(-c2ccc(O)c(O)c2)oc2cc(O)cc(O)c12", "note": "[Quercetin]", "values": [{"measurement": "increase of GFP expression", "setting": "[1]; 50 μM", "result": "about 10 folds"}, {"measurement": "cell death (cell toxicity)", "setting": "[3]", "result": 60, "unit": "%"}]}
{"molecule": "E. coli antitoxin MazE (from UniProt P0AE72 1-82)", "values": [{"measurement": "yield of mCherry-MazF adenovirus in HEK293 packaging cells that constitutively express MazE, against parental HEK293 cells (orders of magnitude)", "setting": "[4]", "result": 2}]}
